Results from patent publication US10617664B2, “Brain derived PPARα ligands” (Rush University Medical Center, priority 2015, dated 2020).

Legend:
[1] = GC-MS of GFP-affinity purified extract of transduced Ppara-null hippocampal neurons; type: binding, mouse; settings: Vector Only; for Rel. Abundance (RA): normalized with internal standard
Procedure: Lentivirus-mediated de novo expression studies were performed, where wild type full-length (GFP-FLPpara) was overexpressed and three different LBD-mutated PPARα (GFP-Y314D, GFP-Y464D and GFP-Y314D/Y464D Ppara) recombinant proteins (FIG. 9D) were expressed in neurons followed by binding analyses with three endogenous ligands. Briefly, site directed mutagenesis was performed in the mouse PPARα with Y314 and Y464 residues replaced separately or together with aspartate (D). After that, the entire mouse GFP-Ppara gene (GFP-FLPpara) and three different mutated genes were cloned in the pLenti6/V5-TOPO lentiviral expression vector (FIG. 3D), packaged in lentivirus particle with HEK293FT cells, purified full length and mutated PPARα proteins in a GFP-affinity column, and finally thermal shift assays were performed in order to analyze their conformational stability. […] After 48 h of transduction, the cells were homogenized, passed through GFP-affinity column, eluted, fractionated with chloroform-methanol, and finally analyzed by GC-MS for the detection of ligands. […] On the other hand, mutation of the Y464 completely knocked down the ligand binding affinity as we observed profound loss of ligand binding in both lenti-GFP-Y464D-Ppara (FIG. 3K, FIG. 9K) and lenti-GFP-Y314D/Y464D-Ppara (FIG. 3L, FIG. 9L)-transduced Ppara-null neurons. Throughout these analyses, we used 2,4-bis (α, α-dimethyl benzyl) phenol as an internal standard (Supplementary FIG. 5A-F). We normalized peak area of different ligands with that of internal standard and then quantified the binding affinity of these ligands with different construct of PPARα by peak integration statistics (Table 1).
Either E18 cultured mouse hippocampal neurons or hippocampal tissue of 6-8 week old male C57/BL6 mice were homogenized in ice-cold nondetergent hypotonic buffer [10 mM HEPES (pH 7.9), 1.5 mM MgCl2, 10 mM KCl, […], protease and phosphatase inhibitor cocktail]. After 10 min of additional incubation in the hypotonic buffer, the homogenate was centrifuged at 8,000 g at 4° C. for 10 min. Next, the pellet was homogenized in ice-cold extraction buffer [10 mM HEPES (pH 7.9), 1.5 mM MgCl2, 0.21 M NaCl, 0.2 mM EDTA, 25% (v/v) glycerol, […], protease and phosphatase inhibitor cocktail], placed on a rotating shaker at 4° C. for 1 h, and then centrifuged at 18,000 g for 10 min. The supernatant (nuclear fraction) was incubated with 1.5 μg of GST PPARα LBD (Protein One) at 4° C. for 6 h in a rotating shaker. The reaction mixture was passed through glutathione column (Pierce® GST Spin Purification Kit), washed four times [50 mM Tris HCl (pH 7.4), 100 mM NaCl, protease and phosphatase inhibitor cocktail] and then eluted with free glutathione. The eluate was transferred to methanol:chloroform:water (4:3:1) mixture and then centrifuged at 14,000 rpm for 90 sec. The organic phase was collected, evaporated in the SpeedVac, reconstituted with 30 μL chloroform or acetonitrile, and then analyzed by GC-MS. In another case, E18 cultured hippocampal neurons were transduced with lentiviral particles conjugated with PPARα-LBD or different GFP-tagged mutated constructs followed by pulling down with anti-PPARα antibody or passing the extract through GFP-column of Vector Fusion-Aid GFP Kit (Cat # MB-0732). After that, the eluate was collected from the column with 5M NaCl solution, concentrated with PD-10 desalting column and analyzed for GC-MS.
A JEOL GCMate II (JEOL USA, Peabody Mass.) mass spectrometer was used in these experiments. The gas chromatograph was an Agilent 6890Plus (Wilmington Del.) equipped with a G1513A auto-injector with 100 vial sample tray connected to a G1512A controller. The gas chromatography column was a fused silica capillary column with a nonpolar 5% phenyl 95% dimethylpolysiloxane phase (Agilent HP-5 ms), 30 meters long, 0.25 mm internal diameter, 0.25 μm film thickness. […]

[2] = molecular target: T1, de novo-synthesized PPARα (Mus musculus, UniProt P23204); test: Immunoprecipitation and GC-MS of Ppara-null hippocampal neurons infected with lenti full-length PPARα; type: binding; settings: lenti-FLPara-transduced, not empty lenti-vector
T1 construct: infected with lentiviral particles of full-length PPARα and then immunoprecipitation performed; expressed in transfected cells; host or cells: Ppara-null mouse hippocampal neurons, lentiviral transduction
T1 sequence (P23204 1-468): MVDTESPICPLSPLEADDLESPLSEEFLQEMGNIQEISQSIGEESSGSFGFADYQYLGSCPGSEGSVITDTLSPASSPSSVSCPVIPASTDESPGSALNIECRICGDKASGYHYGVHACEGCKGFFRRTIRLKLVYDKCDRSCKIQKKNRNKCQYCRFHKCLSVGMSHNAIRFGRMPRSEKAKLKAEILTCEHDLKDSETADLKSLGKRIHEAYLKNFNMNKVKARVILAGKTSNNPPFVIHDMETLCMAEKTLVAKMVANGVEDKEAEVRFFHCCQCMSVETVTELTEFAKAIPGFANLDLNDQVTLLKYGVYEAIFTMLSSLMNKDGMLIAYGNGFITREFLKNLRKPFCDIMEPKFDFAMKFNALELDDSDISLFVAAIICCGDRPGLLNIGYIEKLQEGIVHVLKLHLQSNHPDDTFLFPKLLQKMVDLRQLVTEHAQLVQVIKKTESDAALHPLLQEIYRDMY
Procedure: Identification of novel nuclear ligands of PPARα in the hippocampus PPARs are nuclear receptors that require the binding of ligands for activation of gene expression. […] In order to identify these ligands, a gas chromatography mass spectrometric (GCMS) technology was adopted. Briefly, nuclear extracts were prepared form mouse hippocampus, incubated with a GST-tagged PPARα ligand binding domain (LBD), purified with affinity chromatography, reconstituted with chloroform or acetonitrile, and GCMS analyses preformed. (FIG. 1A, FIGS. 7A-C.). […] Therefore, next cultured Ppara-null hippocampal neurons were infected with lentiviral particles of full-length PPARα and then immunoprecipitation performed followed by GCMS analyses (FIG. 1J, FIG. 7G-H). […] The efficiency of gene transduction was measured by immunoblot analyses of cell extract with PPARα antibody (FIG. 7I. In addition, these analyses successfully identified a group of biological ligands of PPARα, which are endogenously produced in the hippocampus. Some of these detected compounds are sulfur-containing unknown compounds such as thiazoles (MW 220-240), thiosemicarbazones (MW 190-200) and thiazolidine esters (MW 250-270) (Table 2). However, these compounds were excluded from this study because of their unknown biosynthetic pathway, relatively poor match-factor (<65), and commercial unavailability. […]

| binding to de novo-synthesized PPARα (GC-MS) [2] | SMILES | % RA [1] | Adjusted peak area [1] | Rel. Abundance (RA) [1] |
| --- | --- | --- | --- | --- |
| found to be bound | CCCCCCCCCCCCCCCC(N)=O [HEX, hexadecanamide] | 1.92% | 17632 | 0.01924 |
| found to be bound | CCCCCCCCC=CCCCCCCCC(N)=O [OCT, 9-octadecenamide] | 8.69% | 79623 | 0.08689 |
